We go through three molecules from US20180050035A1, “ANTIFUNGAL TREATMENT OF ROSACEA” (Gerbe Labs Inc., priority 2016, published 2018).

Molecules are shown by their SMILES. Values after ≈ are worked out from the molar mass of the structure shown.

Holding throughout (assay type): cell-based
Assay [1] has as its system Aspergillus fumigatus + Candida albicans co-culture (1:1). Briefly: Broth microdilution MIC assay against co-culture of fungal spores. Particulars: Table 4, repeated MIC study, agent alone, listed as Itraconazone. The protocol: Broth Microdilution Minimal Inhibitory Concentration (MIC) assays were performed to obtain the MIC values for Itraconazole and Ketoconazole with an antibiotic (Vancomycin or Tobramycin or Amikacin) against the two fungal strains.
The strains were maintained as a frozen glycerol stocks at −80° C. The fungal strains were prepared by thawing a glycerol stock, streaking and growing onto Sabouraud's Dextrose Agar (SDA) plates, overnight at 35±2° C. in aerobic conditions and used for the assay.
The completely synthetic medium RPMI-1640 (with glutamine, without bicarbonate, and with phenol red as a pH indicator) was buffered with 0.165 mol/L MOPS (3-[N-morpholino] propanesulfonic acid) buffer was used as the growth medium for the fungal strains. Overnight cultures of the fungal strains were grown on Difco™ Sabouraud's Dextrose Agar (SDA) plates at 35° C. To induce conidium and sporangiospore formation, the culture plates were transferred to incubator and grown for 5-7 days 30° C. or until good sporulation was obtained. Approximately, 10 mL of 0.85% saline containing 0.01% of Tween 80 was used to poured on to the agar plate containing conidia or sporangiospores and hyphal fragments. The suspension containing conidia or sporangiospores and hyphal fragments was aspirated and transferred to a sterile tube. This mixture was filtered to separate the spores from the vegetative cells of the fungi. […]
A general note: Broth dilution looks for growth in wells or tubes with falling amounts of substance.

For the next assay, the system named is Candida albicans. The assay is described as follows: Culture of Patient 7, sensitivity of isolate. To be noted: Patient 7 culture. An excerpt:
(§1) The patient underwent the standard workup for CRS, sleep disorder, and nasal obstruction, plus our diagnostic skin test and sinus CT scan.

The subject of another assay is gram negative bacteria. The assay is described as follows: Culture of Patient 7, sensitivity of isolate. To be noted: Patient 7 culture.
Source text: as §1

With `CCC(C)n1ncn(-c2ccc(N3CCN(c4ccc(OCC5COC(Cn6cncn6)(c6ccc(Cl)cc6Cl)O5)cc4)CC3)cc2)c1=O` (stereo not drawn) [Itraconazole], the MIC (in general, the least concentration at which growth counts as inhibited) in assay [1] is 1 µg/mL (≈ 1.42 µM).

For `CC(=O)N1CCN(c2ccc(OCC3COC(Cn4ccnc4)(c4ccc(Cl)cc4Cl)O3)cc2)CC1` (stereo not drawn) [Ketoconazole], in the assay with Candida albicans, the “Sensitivity of cultured isolate” value is listed as “sensitive”.

Regarding `NC[C@H]1O[C@H](O[C@H]2[C@H](O)[C@@H](O[C@H]3O[C@H](CO)[C@@H](O)[C@H](N)[C@H]3O)[C@H](N)C[C@@H]2N)[C@H](N)C[C@@H]1O` [tobramycin], the “Sensitivity of cultured isolate” value in the assay with gram negative bacteria is on record as “sensitive”.
